Assay results from patent publication US12091425B2 (AMGEN INC., priority 2016, dated 2024).
Like-named read-outs stand apart in the source and are kept apart here.

Key:
[1] = system: OPM-2 human multiple myeloma cell line; assay: Cell Viability Assay (OPM-2 10 FBS); assay type: cell-based; details: Homo sapiens, OPM-2, 16 h, OPM-2 cells, 16 h, CellTiter-Glo
How it was run: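 OPM-2 myeloma cells, 3000/well in medium with 10% FBS, exposed to serially diluted compounds for 16 h at 37° C./5% CO2. Viability read by CellTiter-Glo luminescence; IC50 from 4-parameter logistic fit.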

[2] = rcm bond, 16-membered ring, Hoveyda-Grubbs II, AcOH
[3] = target: T1, Mcl-1/Bim interaction, recombinant human Mcl-1 (171-327) (Homo sapiens, UniProt Q07820); assay: Cell free Mcl-1: Bim Affinity Assay (Mcl-1 HTRF); assay type: binding; details: TR-FRET, 0.1 nM Mcl-1 (171-327), 0.05 nM biotin-Bim (51-76)
T1 construct: made in house
T1 sequence (Q07820 171-327): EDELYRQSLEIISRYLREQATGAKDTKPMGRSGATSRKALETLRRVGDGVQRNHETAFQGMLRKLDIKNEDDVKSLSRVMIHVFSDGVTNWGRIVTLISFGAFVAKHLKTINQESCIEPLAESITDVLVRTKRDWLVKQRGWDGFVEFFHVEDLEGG
How it was run: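 Displacement of biotinylated Bim 51-76 peptide is followed by TR-FRET. Incubation runs overnight. Duplicate points are fitted with a four-parameter sigmoid to yield IC50.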

[4] = from C=CC[C@H](C)NS(=O)(=O)NC(=O)c1ccc2c(c1)N(C[C@@H]1CC[C@H]1[C@@H](O)C=C)C[C@@]1(CCCc3cc(Cl)ccc31)CO2

Row | IC50 [1] | IC50 [3] | SMILES | ring closure, yield after HPLC ([2]; from C=CCCN(CC)S(=O)(=O)NC(=O)c1ccc2c(c1)N(C[C@@H]1CC[C@H]1[C@@H](O)/C=C/CCC)C[C@@]1(CCCc3cc(Cl)ccc31)CO2, 2.9 mM) | ring closure, yield after HPLC [2, 4]
1 | 1280 nM | 0.66 nM | CCN1CC/C=C/[C@H](O)[C@@H]2CC[C@H]2CN2C[C@@]3(CCCc4cc(Cl)ccc43)COc3ccc(cc32)C(=O)NS1(=O)=O (single isomer, unassigned) [Example 29] | 22.2% | –
2 | 362 nM | 0.266 nM | C[C@H]1C/C=C\[C@H](O)[C@@H]2CC[C@H]2CN2C[C@@]3(CCCc4cc(Cl)ccc43)COc3ccc(cc32)C(=O)NS(=O)(=O)N1 (single isomer, unassigned) [Example 62] | – | 2.1%
3 | 278 nM | 0.241 nM | C[C@H]1C/C=C/[C@H](O)[C@@H]2CC[C@H]2CN2C[C@@]3(CCCc4cc(Cl)ccc43)COc3ccc(cc32)C(=O)NS(=O)(=O)N1 [Example 61, (1S,3′R,6′R,7′S,8′E,11′S)-6-chloro-7′-hydroxy-11′-methyl-3,4-dihydro-2H,15′H-spiro[naphthalene-1,22′-[20]oxa[13]thia[1,12,14]triazatetracyclo[14.7.2.0^3,6.0^19,24]pentacosa[8,16,18,24]tetraen]-15′-one 13,13′-dioxide] | – | 50.1%
